Source: PMC12549899 (Nature Communications, 2025)
Positions count from the first letter of the chain named.

Assays:
[1] = molecular target: T1, DrOTOP1 mutants targeting the C-domain pocket (Danio rerio, UniProt Q7ZWK8, G346F/I565W); experiment: Whole-cell patch-clamp, inhibition of acid-evoked currents, other DrOTOP1 C-domain pocket mutants (e.g. G346F, Y422F, L531F, I565W/G346F; Supplementary Fig. 5); format: cell-based, zebrafish (Danio rerio); settings: DrOTOP1 I565W / G346F; Supp. Fig 5C
T1 construct: A previously generated codon-optimized full-length DrOTOP1[8]; (UniProt: Q7ZWK8) construct; expressed in transfected cells; host or cells: HEK-293 (CRL-1573, ATCC)
T1 sequence (Q7ZWK8 1-586 G346F/I565W): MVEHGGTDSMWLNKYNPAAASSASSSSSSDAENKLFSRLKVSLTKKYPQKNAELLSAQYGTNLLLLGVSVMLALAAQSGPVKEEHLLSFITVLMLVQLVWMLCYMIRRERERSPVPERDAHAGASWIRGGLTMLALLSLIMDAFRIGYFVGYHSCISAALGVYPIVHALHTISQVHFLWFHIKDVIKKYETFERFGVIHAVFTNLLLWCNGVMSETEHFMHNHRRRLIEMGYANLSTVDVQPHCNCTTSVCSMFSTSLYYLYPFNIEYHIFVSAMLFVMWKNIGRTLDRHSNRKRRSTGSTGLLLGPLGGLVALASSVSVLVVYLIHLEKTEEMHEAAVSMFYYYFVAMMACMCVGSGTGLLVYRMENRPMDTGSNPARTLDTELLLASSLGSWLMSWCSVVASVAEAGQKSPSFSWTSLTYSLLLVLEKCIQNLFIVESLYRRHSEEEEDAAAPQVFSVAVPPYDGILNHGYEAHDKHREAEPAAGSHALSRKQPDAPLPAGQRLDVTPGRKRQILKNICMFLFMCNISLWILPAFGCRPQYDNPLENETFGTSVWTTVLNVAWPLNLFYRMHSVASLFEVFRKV
Excerpt: (§1) To experimentally verify whether C11 and C2.2 bind in the C-domain pocket as predicted, we used their docked poses to guide mutagenesis. The predicted interactions for C11 and C2.2 include π-stacking with F342 and Y422, potential H-bonding with Q542, N568, and R572 (Fig. 2J, K and Supplementary Fig. 5A), and hydrophobic packing. We generated single-residue mutants of these and other residues in DrOTOP1 that were expected to disrupt specific molecular interactions or to introduce a bulky tryptophan residue (W) to produce steric hindrance.
(§2) We next tested a subset of these mutants for sensitivity to C2.2, focusing on those that could occlude the C-domain pocket. […]
(§3) Whole-cell patch-clamp recording was performed as previously described[6],[22],[25]. Recordings were made with an Axopatch 200B amplifier, digitized with a Digidata 1322a 16-bit data acquisition system, acquired with pClamp 8.2 and analyzed with Clampfit 10 (Molecular Devices). […]
(§4) All data are presented as mean ± SEM unless otherwise noted, and each data point represents an independent replicant. Inhibition of compounds was quantified as ((I2peak-I1)/(I2peak))*100, where I1 is the current immediately before wash-off and I2peak is the maximum recovered current (Supplementary Fig. 2). Hill coefficients were determined by the following equation: Y = Bmax*X^h/(Kd^h + X^h). […]

[2] = molecular target: T2, DrOTOP1 mutants targeting the C-domain pocket (Danio rerio, UniProt Q7ZWK8, G346F); experiment: as above; format: cell-based, zebrafish (Danio rerio); settings: 100 µM; DrOTOP1 G346F; compared with WT
T2 construct: A previously generated codon-optimized full-length DrOTOP1[8]; (UniProt: Q7ZWK8) construct; expressed in transfected cells; host or cells: HEK-293 (CRL-1573, ATCC)
T2 sequence (Q7ZWK8 1-586 G346F): T1 sequence (Q7ZWK8 1-586 G346F/I565W) with W565I
Excerpt: as §1, §2, §3, §4

## O=C(/C(=N\O)c1ccccc1)c1ccccc1 [C11, benzil monoxime]
[1]
  inhibition of acid-evoked current, mean (Mean of column R): 28
[2]
  Inhibition of currents: slightly reduced inhibition
